Assay: xn = mol fraction of the nth substance listed
Conditions: 298.15 K, 101 kPa, Liquid, Vibrating tube method

CCCCOC(C)=O [butyl ethanoate] + CCC(C)Cl
Conditions	mass density [kg/m3]
x2 = 0	876.2

CC(C)CO [2-methyl-1-propanol] + CCCCOC(C)=O
Conditions	mass density [kg/m3]
x2 = 0	797.82

CCC(C)Cl (stereo not drawn) [2-chlorobutane] + CCCCOC(C)=O
Conditions	mass density [kg/m3]
x1 = 0.0787	875.55
x1 = 0.1618	874.83
x1 = 0.233	874.2
x1 = 0.325	873.36
x1 = 0.3861	872.8
x1 = 0.4512	872.2
x1 = 0.506	871.7
x1 = 0.5902	870.94
x1 = 0.6656	870.27
x1 = 0.7352	869.65
x1 = 0.7862	869.19
x1 = 0.8516	868.6
x1 = 0.8961	868.19
x1 = 0.9458	867.73
x1 = 1	867.21

CCCCOC(C)=O [butyl ethanoate] + CC(C)CO
Conditions	mass density [kg/m3]
x1 = 0.0589	802.41
x1 = 0.1065	806.12
x1 = 0.1907	812.7
x1 = 0.272	819.03
x1 = 0.3894	828.2
x1 = 0.4427	832.34
x1 = 0.5277	838.96
x1 = 0.607	845.14
x1 = 0.6829	851.07
x1 = 0.7405	855.58
x1 = 0.8166	861.57
x1 = 0.87	865.79
x1 = 0.9312	870.67
x1 = 1	876.2

CCC(C)Cl (stereo not drawn) [2-chlorobutane] + CC(C)CO
Conditions	mass density [kg/m3]
x1 = 0.0579	801.82
x1 = 0.1152	805.77
x1 = 0.2274	813.51
x1 = 0.3166	819.67
x1 = 0.4235	827.01
x1 = 0.4896	831.53
x1 = 0.5564	836.12
x1 = 0.6097	839.79
x1 = 0.6872	845.08
x1 = 0.7523	849.59
x1 = 0.809	853.54
x1 = 0.8487	856.33
x1 = 0.8975	859.77
x1 = 0.9293	862.05
x1 = 0.9638	864.55
x1 = 1	867.21

CC(C)CO [2-methyl-1-propanol] + CCC(C)Cl
Conditions	mass density [kg/m3]
x2 = 0	797.82
